Assay results as given in patent US6358885B1, “Substituted phenylheterocyclic herbicides” (Mississippi State University, priority 1992, dated 2002).

Legend:
Assay in all cases: Test G preemergence/postemergence greenhouse plant response rating 0 to 100
[1] = test system: itchgrass; assay type: in vivo, Rottboellia exaltata; details: 0 to 100 scale
Outline: (§1)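 Greenhouse pots, one species each; non-phytotoxic solvent vehicle. Read-out: visual injury vs untreated, 13–21 DAT. Dash denotes no result.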

[2] = test system: johnsongrass; assay type: in vivo, Sorghum halepense; details: 0 to 100 scale
Outline: as §1

[3] = test system: large crabgrass; assay type: in vivo, Digitaria sanguinalis; details: 0 to 100 scale
Outline: as §1

[4] = test system: smooth crabgrass; assay type: in vivo, Digitaria ischaemum; details: 0 to 100 scale
Outline: as §1

[5] = test system: yellow nutsedge; assay type: in vivo, Cyperus esculentus; details: Rate 125 g/ha, 0 to 100 scale
Outline: as §1

[6] = test system: guineagrass; assay type: in vivo, Panicum maximum; details: 0 to 100 scale
Outline: as §1

[7] = test system: pitted morningglory; assay type: in vivo, Ipomoea lacunosa; details: 0 to 100 scale
Outline: as §1

[8] = test system: goosegrass; assay type: in vivo, Eleusine indica; details: 0 to 100 scale
Outline: as §1

[9] = test system: common purslane; assay type: in vivo, Portulaca oleracea; details: 0 to 100 scale
Outline: as §1

[10] = test system: bermudagrass; assay type: in vivo, Cynodon dactylon; details: 0 to 100 scale
Outline: as §1

[11] = test system: dallisgrass; assay type: in vivo, Paspalum dilatatum; details: 0 to 100 scale
Outline: as §1

[12] = test system: common ragweed; assay type: in vivo, Ambrosia elatior; details: 0 to 100 scale
Outline: as §1

[13] = test system: purple nutsedge; assay type: in vivo, Cyperus rotundus; details: Rate 125 g/ha, 0 to 100 scale
Outline: as §1

[14] = test system: annual bluegrass; assay type: in vivo, Poa annua; details: 0 to 100 scale
Outline: as §1

[15] = test system: alfalfa; assay type: in vivo, Medicago ativa; details: 0 to 100 scale
Outline: as §1

[16] = test system: sandbur; assay type: in vivo, Cenchrus echinatus; details: 0 to 100 scale
Outline: as §1

[17] = test system: peanut; assay type: in vivo, Arachis hypoagaea; details: 0 to 100 scale
Outline: as §1

[18] = test system: broadleaf signalgrass; assay type: in vivo, Brachiaria plantaginea; details: 0 to 100 scale
Outline: as §1

CC(C)COc1cc(-c2nn3c(c2Cl)CCCC3)c(F)cc1Cl [Compound 30]
Plant response rating, Itchgrass ([1]; POSTEMERGENCE, Rate 125 g/ha): 0
Plant response rating, Itchgrass ([1]; POSTEMERGENCE, Rate 250 g/ha): 0
Plant response rating, Itchgrass ([1]; PREEMERGENCE, Rate 125 g/ha): 0
Plant response rating, Itchgrass ([1]; PREEMERGENCE, Rate 250 g/ha): 0
Plant response rating, Johnsongrass ([2]; POSTEMERGENCE, Rate 125 g/ha): 0
Plant response rating, Johnsongrass ([2]; POSTEMERGENCE, Rate 250 g/ha): 0
Plant response rating, Johnsongrass ([2]; PREEMERGENCE, Rate 125 g/ha): 0
Plant response rating, Johnsongrass ([2]; PREEMERGENCE, Rate 250 g/ha): 0
Plant response rating, Large Crabgrass ([3]; POSTEMERGENCE, Rate 125 g/ha): 0
Plant response rating, Large Crabgrass ([3]; POSTEMERGENCE, Rate 250 g/ha): 0
Plant response rating, Large Crabgrass ([3]; PREEMERGENCE, Rate 125 g/ha): 0
Plant response rating, Large Crabgrass ([3]; PREEMERGENCE, Rate 250 g/ha): 70
Plant response rating, Smooth Crabgras ([4]; POSTEMERGENCE, Rate 125 g/ha): 0
Plant response rating, Smooth Crabgras ([4]; POSTEMERGENCE, Rate 250 g/ha): 0
Plant response rating, Smooth Crabgras ([4]; PREEMERGENCE, Rate 125 g/ha): 0
Plant response rating, Smooth Crabgras ([4]; PREEMERGENCE, Rate 250 g/ha): 0
Plant response rating, Yellow Nutsedge ([5]; POSTEMERGENCE): 0
Plant response rating, Yellow Nutsedge ([5]; PREEMERGENCE): 0
Plant response rating, Guineagrass ([6]; POSTEMERGENCE, Rate 125 g/ha): 0
Plant response rating, Guineagrass ([6]; POSTEMERGENCE, Rate 250 g/ha): 0
Plant response rating, Guineagrass ([6]; PREEMERGENCE, Rate 125 g/ha): 0
Plant response rating, Guineagrass ([6]; PREEMERGENCE, Rate 250 g/ha): 0
Plant response rating, Pit Morninglory ([7]; POSTEMERGENCE, Rate 125 g/ha): 0
Plant response rating, Pit Morninglory ([7]; POSTEMERGENCE, Rate 250 g/ha): 20
Plant response rating, Pit Morninglory ([7]; PREEMERGENCE, Rate 125 g/ha): 0
Plant response rating, Pit Morninglory ([7]; PREEMERGENCE, Rate 250 g/ha): 0
Plant response rating, Goosegrass ([8]; POSTEMERGENCE, Rate 125 g/ha): 0
Plant response rating, Goosegrass ([8]; POSTEMERGENCE, Rate 250 g/ha): 0
Plant response rating, Goosegrass ([8]; PREEMERGENCE, Rate 125 g/ha): 0
Plant response rating, Goosegrass ([8]; PREEMERGENCE, Rate 250 g/ha): 30
Plant response rating, Cmn Purslane ([9]; POSTEMERGENCE, Rate 125 g/ha): 70
Plant response rating, Cmn Purslane ([9]; POSTEMERGENCE, Rate 250 g/ha): 60
Plant response rating, Cmn Purslane ([9]; PREEMERGENCE, Rate 125 g/ha): 0
Plant response rating, Cmn Purslane ([9]; PREEMERGENCE, Rate 250 g/ha): 0
Plant response rating, Bermudagrass ([10]; POSTEMERGENCE, Rate 125 g/ha): 0
Plant response rating, Bermudagrass ([10]; POSTEMERGENCE, Rate 250 g/ha): 0
Plant response rating, Bermudagrass ([10]; PREEMERGENCE, Rate 125 g/ha): 0
Plant response rating, Bermudagrass ([10]; PREEMERGENCE, Rate 250 g/ha): 0
Plant response rating, Dallisgrass ([11]; POSTEMERGENCE, Rate 125 g/ha): 0
Plant response rating, Dallisgrass ([11]; POSTEMERGENCE, Rate 250 g/ha): 0
Plant response rating, Dallisgrass ([11]; PREEMERGENCE, Rate 125 g/ha): 0
Plant response rating, Dallisgrass ([11]; PREEMERGENCE, Rate 250 g/ha): 0
Plant response rating, Cmn Ragweed ([12]; POSTEMERGENCE, Rate 125 g/ha): 40
Plant response rating, Cmn Ragweed ([12]; POSTEMERGENCE, Rate 250 g/ha): 0
Plant response rating, Cmn Ragweed ([12]; PREEMERGENCE, Rate 125 g/ha): 0
Plant response rating, Cmn Ragweed ([12]; PREEMERGENCE, Rate 250 g/ha): 0
Plant response rating, Purple Nutsedge ([13]; POSTEMERGENCE): 0
Plant response rating, Purple Nutsedge ([13]; PREEMERGENCE): 0
Plant response rating, Ann Bluegrass ([14]; POSTEMERGENCE, Rate 125 g/ha): 0
Plant response rating, Ann Bluegrass ([14]; POSTEMERGENCE, Rate 250 g/ha): 0
Plant response rating, Ann Bluegrass ([14]; PREEMERGENCE, Rate 125 g/ha): 0
Plant response rating, Ann Bluegrass ([14]; PREEMERGENCE, Rate 250 g/ha): 0
Plant response rating, Alfalfa Var. ([15]; POSTEMERGENCE, Rate 125 g/ha): 0
Plant response rating, Alfalfa Var. ([15]; POSTEMERGENCE, Rate 250 g/ha): 0
Plant response rating, Alfalfa Var. ([15]; PREEMERGENCE, Rate 125 g/ha): 0
Plant response rating, Alfalfa Var. ([15]; PREEMERGENCE, Rate 250 g/ha): 0
Plant response rating, S. Sandbur ([16]; POSTEMERGENCE, Rate 125 g/ha): 0
Plant response rating, S. Sandbur ([16]; POSTEMERGENCE, Rate 250 g/ha): 0
Plant response rating, S. Sandbur ([16]; PREEMERGENCE, Rate 125 g/ha): 0
Plant response rating, S. Sandbur ([16]; PREEMERGENCE, Rate 250 g/ha): 0
Plant response rating, Peanuts ([17]; POSTEMERGENCE, Rate 125 g/ha): 0
Plant response rating, Peanuts ([17]; POSTEMERGENCE, Rate 250 g/ha): 0
Plant response rating, Peanuts ([17]; PREEMERGENCE, Rate 125 g/ha): 0
Plant response rating, Peanuts ([17]; PREEMERGENCE, Rate 250 g/ha): 0
Plant response rating, Brdlf Sgnlgrass ([18]; POSTEMERGENCE, Rate 125 g/ha): 0
Plant response rating, Brdlf Sgnlgrass ([18]; POSTEMERGENCE, Rate 250 g/ha): 0
Plant response rating, Brdlf Sgnlgrass ([18]; PREEMERGENCE, Rate 125 g/ha): 0
Plant response rating, Brdlf Sgnlgrass ([18]; PREEMERGENCE, Rate 250 g/ha): 0
